The values that follow come from US11541063B2, “Compositions and products for use in the treatment of bone fractures and defects” (priority 2014, dated 2023).

Like-named read-outs stand apart in the source and are kept apart here.

This assay relates to MC3T3-E1 cells. The following applies: alendronate only (0 nM Stanolone), MC3T3 cells stimulated for 10 days.

Description: MC3T3-E1 (ECACC, Acc. No. 99072810) were cultured in α-MEM (Invitrogen, Carlsbad, Calif.) supplemented with 100 U/ml penicillin, 100 ug/ml streptomycin (Invitrogen, Carlsbad, Calif.) and 5% fetal bovine serum (Hyclone, GE Healthcare). Cells were grown under standard conditions (37° C., 5% CO2 and 95% humidity). MC3T3-E1 cells were seeded at a density of 26000 cells/cm2 and seeding of the cells was considered as the day 0 timepoint. On day 1 post-plating, the medium of the MC3T3-E1 cells was replaced with osteogenic medium (the above-mentioned media supplemented with 50 μg/ml Ascorbic Acid (Sigma)), 10 nM β-glycerol phosphate (Sigma) and on day 3 post-plating, hormones or vehicle (0.1% ethanol) were added.
Cells were lysed for 10 minutes with lysisbuffer (100 mM Potassium phosphate, 0.2% Triton X-100, pH 7.8 containing protease inhibitor cocktail (Roche)). […] The luminescence (1 second) was measured with a Filtermax F5 (Molecular Devices).
The acidic phosphatase activity of the cells was determined by adding freshly prepared p-NPP buffer (4-nitrophenyl phosphate (Sigma) in 0.1 M NaAc+0.1% Triton X-100, pH5.5) to the cell lysates and incubated for 1.5 hrs at 37° C. and 5% CO2. […] The absorbance was measured at 405 nm with a Filtermax F5 (Molecular Devices). […]

For the compound `NCCCC(O)(P(=O)(O)O)P(=O)(O)O` [alendronate], the ALP/AP activity result (50 μM) is recorded as “decreases”; the ALP/AP activity entry (2 and 10 μM) was “small increase”.
